# What was measured:
# Assay type in all cases: in vivo
# [1] = system: kochia (Kochia scoparia); test: Test A preemergence; conditions: Bassia scoparia, pre-emergence, 240 h, 0 to 100 scale (0 no effect, 100 complete control), read-out: Kochia plant response rating; for pest or weed control at 31 g/ha: 31 g ai/ha; for pest or weed control at 125 g/ha: 125 g ai/ha
# In short: (§1)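 Visual injury scored 0–100 (100 = complete control) against untreated controls about 10 days after treatment in a greenhouse. Test chemicals, formulated with surfactant in non-phytotoxic solvent, were sprayed on soil preemergence or on 2-10 cm, one- to two-leaf plants postemergence.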
# [2] = system: giant foxtail (Setaria faberii); test: Test A preemergence; conditions: Setaria faberi, pre-emergence, 240 h, 0 to 100 scale (0 no effect, 100 complete control), read-out: Foxtail, Giant plant response rating; for pest or weed control at 31 g/ha: 31 g ai/ha; for pest or weed control at 125 g/ha: 125 g ai/ha
# In short: as §1
# [3] = system: pigweed (Amaranthus retroflexus); test: Test A preemergence; conditions: Amaranthus retroflexus, pre-emergence, 240 h, 0 to 100 scale (0 no effect, 100 complete control), read-out: Pigweed plant response rating; for pest or weed control at 31 g/ha: 31 g ai/ha; for pest or weed control at 125 g/ha: 125 g ai/ha
# In short: as §1
# [4] = system: barnyardgrass (Echinochloa crus-galli); test: Test A preemergence; conditions: Echinochloa crus-galli, pre-emergence, 240 h; for pest or weed control at 31 g/ha: 31 g ai/ha; for pest or weed control at 125 g/ha: 125 g ai/ha
# In short: as §1
# [5] = system: Italian ryegrass (Lolium multiflorum); test: Test A preemergence; conditions: Lolium multiflorum, pre-emergence, 240 h, 0 to 100 scale (0 no effect, 100 complete control), read-out: Ryegrass, Italian plant response rating; for pest or weed control at 31 g/ha: 31 g ai/ha; for pest or weed control at 125 g/ha: 125 g ai/ha
# In short: as §1
# [6] = system: ragweed (common ragweed, Ambrosia elatior); test: Test A preemergence; conditions: Ambrosia artemisiifolia, pre-emergence, 240 h, 0 to 100 scale (0 no effect, 100 complete control), read-out: Ragweed plant response rating; for pest or weed control at 31 g/ha: 31 g ai/ha; for pest or weed control at 125 g/ha: 125 g ai/ha
# In short: as §1
# [7] = system: sedge, umbrella (small-flower umbrella sedge, Cyperus difformis); test: Test B flooded paddy; conditions: Cyperus difformis, 336 h; 250 g ai/ha, Flood, 13 to 15 days, scale 0 (no effect) to 100 (complete control); read-out: Plant response rating, Sedge, Umbrella
# In short: (§2)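 Compound was added to standing water 3 cm above soil, flood maintained, and plants held in a greenhouse before visual scoring against controls at 13 to 15 days.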
# [8] = system: barnyardgrass (Echinochloa crus-galli); test: Test B flooded paddy; conditions: Echinochloa crus-galli, 336 h; 250 g ai/ha, Flood, 13 to 15 days, scale 0 (no effect) to 100 (complete control); read-out: Plant response rating, Barnyardgrass
# In short: as §2
# [9] = system: rice (Oryza sativa); test: Test B flooded paddy; conditions: Oryza sativa, 336 h; 250 g ai/ha, Flood, 13 to 15 days, scale 0 (no effect) to 100 (complete control); read-out: Plant response rating, Rice
# In short: as §2
# [10] = system: ducksalad (Heteranthera limosa); test: Test B flooded paddy; conditions: Heteranthera limosa, 336 h; 250 g ai/ha, Flood, 13 to 15 days, scale 0 (no effect) to 100 (complete control); read-out: Plant response rating, Ducksalad
# In short: as §2
# [11] = system: kochia (Kochia scoparia); test: Test A postemergence; conditions: Bassia scoparia, post-emergence, 240 h, 0 to 100 scale, read-out: Plant response rating, Kochia; for pest or weed control at 31 g/ha: 31 g ai/ha; for pest or weed control at 125 g/ha: 125 g ai/ha
# In short: as §1
# [12] = system: galium (catchweed bedstraw, Galium aparine); test: Test A postemergence; conditions: Galium, post-emergence, 240 h, 0 to 100 scale, read-out: Plant response rating, Galium; for pest or weed control at 31 g/ha: 31 g ai/ha; for pest or weed control at 125 g/ha: 125 g ai/ha
# In short: as §1
# [13] = system: giant foxtail (Setaria faberii); test: Test A postemergence; conditions: Setaria faberi, post-emergence, 240 h, 0 to 100 scale, read-out: Plant response rating, Foxtail, Giant; for pest or weed control at 31 g/ha: 31 g ai/ha; for pest or weed control at 125 g/ha: 125 g ai/ha
# In short: as §1
# [14] = system: pigweed (Amaranthus retroflexus); test: Test A postemergence; conditions: Amaranthus retroflexus, post-emergence, 240 h, 0 to 100 scale, read-out: Plant response rating, Pigweed; for pest or weed control at 31 g/ha: 31 g ai/ha; for pest or weed control at 125 g/ha: 125 g ai/ha
# In short: as §1
# [15] = system: corn (Zea mays); test: Test A postemergence; conditions: Zea mays, post-emergence, 240 h, 0 to 100 scale; for Corn plant response rating (crop injury, 0 = no effect, 100 = complete kill) at 31 g/ha: 31 g ai/ha; for Corn plant response rating (crop injury, 0 = no effect, 100 = complete kill) at 125 g/ha: 125 g ai/ha
# In short: as §1
# [16] = system: barnyardgrass (Echinochloa crus-galli); test: Test A postemergence; conditions: Echinochloa crus-galli, post-emergence, 240 h, 0 to 100 scale, read-out: Plant response rating, Barnyardgrass; for pest or weed control at 31 g/ha: 31 g ai/ha; for pest or weed control at 125 g/ha: 125 g ai/ha
# In short: as §1
# [17] = system: blackgrass (Alopecurus myosuroides); test: Test A postemergence; conditions: Alopecurus myosuroides, post-emergence, 240 h, 0 to 100 scale, read-out: Plant response rating, Blackgrass; for pest or weed control at 31 g/ha: 31 g ai/ha; for pest or weed control at 125 g/ha: 125 g ai/ha
# In short: as §1
# [18] = system: Italian ryegrass (Lolium multiflorum); test: Test A postemergence; conditions: Lolium multiflorum, post-emergence, 240 h, 0 to 100 scale, read-out: Plant response rating, Ryegrass, Italian; for pest or weed control at 31 g/ha: 31 g ai/ha; for pest or weed control at 125 g/ha: 125 g ai/ha
# In short: as §1
# [19] = system: ragweed (common ragweed, Ambrosia elatior); test: Test A postemergence; conditions: Ambrosia artemisiifolia, post-emergence, 240 h, 0 to 100 scale, read-out: Plant response rating, Ragweed; for pest or weed control at 31 g/ha: 31 g ai/ha; for pest or weed control at 125 g/ha: 125 g ai/ha
# In short: as §1
# [20] = system: wheat (Triticum aestivum); test: Test A postemergence; conditions: Triticum aestivum, post-emergence, 240 h, 0 to 100 scale, read-out: Plant response rating, Wheat; for plant injury at 31 g/ha: 31 g ai/ha; for plant injury at 125 g/ha: 125 g ai/ha
# In short: as §1
# [21] = system: Italian ryegrass (Lolium multiflorum); test: Test C preemergence; conditions: Lolium multiflorum, pre-emergence, 336 h, scale 0 to 100, read-out: Plant response rating, Ryegrass, Italian; for pest or weed control at 31 g/ha: 31 g ai/ha; for pest or weed control at 31 g/ha / pest or weed control at 62 g/ha / pest or weed control at 125 g/ha: preemergence; for pest or weed control at 62 g/ha: 62 g ai/ha; for pest or weed control at 125 g/ha: 125 g ai/ha; for pest or weed control at 16 g/ha: Preemergence, 16 g ai/ha
# In short: (§3)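 Visual ratings were made 13-15 days after treatment in the greenhouse, scored 0-100 against controls, where 100 means complete control. Treatments used a surfactant-containing non-phytotoxic solvent formulation, applied preemergence to seeds in loam-sand soil or postemergence to 2-18 cm plants (1-4 leaves) in peat-based medium.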
# [22] = system: waterhemp (common waterhemp, Amaranthus rudis); test: Test C preemergence; conditions: Amaranthus tuberculatus, pre-emergence, scale 0 to 100, read-out: Plant response rating, Waterhemp; for pest or weed control at 31 g/ha: 31 g ai/ha; for pest or weed control at 31 g/ha / pest or weed control at 62 g/ha / pest or weed control at 125 g/ha: preemergence; for pest or weed control at 62 g/ha: 62 g ai/ha; for pest or weed control at 125 g/ha: 125 g ai/ha; for pest or weed control at 16 g/ha: Preemergence, 16 g ai/ha
# In short: as §3
# [23] = 0 to 100 scale (0 no effect, 100 complete control), read-out: Barnyardgrass plant response rating
compound,measurement,setting,value
"Fc1ccc(F)c(Oc2ncc(Cl)cn2)c1Oc1ncc(Cl)cn1 [Compound 34, 2,2′-[(3,6-difluoro-1,2-phenylene)bis(oxy)]bis[5-chloropyrimidine]]",pest or weed control at 31 g/ha,[1],80%
same,pest or weed control at 125 g/ha,[1],90%
same,pest or weed control at 31 g/ha,[2],70%
same,pest or weed control at 125 g/ha,[2],90%
same,pest or weed control at 31 g/ha,[3],100%
same,pest or weed control at 125 g/ha,[3],100%
same,pest or weed control at 31 g/ha,[4]; [23],10%
same,pest or weed control at 125 g/ha,"[4]; 0 to 100 scale, read-out: Plant response rating, Barnyardgrass",80%
same,pest or weed control at 31 g/ha,[5],0%
same,pest or weed control at 125 g/ha,[5],50%
same,pest or weed control at 31 g/ha,[6],0%
same,pest or weed control at 125 g/ha,[6],10%
same,pest or weed control at 250 g/ha,[7],30%
same,pest or weed control at 250 g/ha,[8],0%
same,plant injury at 250 g/ha,[9],0%
same,pest or weed control at 250 g/ha,[10],30%
same,pest or weed control at 31 g/ha,[11],50%
same,pest or weed control at 125 g/ha,[11],70%
same,pest or weed control at 31 g/ha,[12],80%
same,pest or weed control at 125 g/ha,[12],90%
same,pest or weed control at 31 g/ha,[13],30%
same,pest or weed control at 125 g/ha,[13],70%
same,pest or weed control at 31 g/ha,[14],70%
same,pest or weed control at 125 g/ha,[14],80%
same,"Corn plant response rating (crop injury, 0 = no effect, 100 = complete kill) at 31 g/ha",[15],0%
same,"Corn plant response rating (crop injury, 0 = no effect, 100 = complete kill) at 125 g/ha",[15],10%
same,pest or weed control at 31 g/ha,[16],0%
same,pest or weed control at 125 g/ha,[16],50%
same,pest or weed control at 31 g/ha,[17],60%
same,pest or weed control at 125 g/ha,[17],70%
same,pest or weed control at 31 g/ha,[18],10%
same,pest or weed control at 125 g/ha,[18],50%
same,pest or weed control at 31 g/ha,[19],30%
same,pest or weed control at 125 g/ha,[19],50%
same,plant injury at 31 g/ha,[20],0%
same,plant injury at 125 g/ha,[20],30%
same,pest or weed control at 31 g/ha,[21],5%
same,pest or weed control at 62 g/ha,[21],10%
same,pest or weed control at 125 g/ha,[21],35%
same,pest or weed control at 16 g/ha,[21],0%
same,pest or weed control at 31 g/ha,[22],100%
same,pest or weed control at 62 g/ha,[22],100%
same,pest or weed control at 125 g/ha,[22],100%
same,pest or weed control at 16 g/ha,[22],100%
"N#Cc1cccc(Oc2ncc(Cl)cn2)c1Oc1ncc(C(F)(F)F)cn1 [Compound 38, 3-[(5-chloro-2-pyrimidinyl)oxy]-2-[[5-(trifluoromethyl)-2-pyrimidinyl]oxy]-benzonitrile]",pest or weed control at 31 g/ha,[1],90%
same,pest or weed control at 125 g/ha,[1],100%
same,pest or weed control at 31 g/ha,[2],100%
same,pest or weed control at 125 g/ha,[2],100%
same,pest or weed control at 31 g/ha,[3],100%
same,pest or weed control at 125 g/ha,[3],100%
same,pest or weed control at 31 g/ha,[4]; [23],80%
same,pest or weed control at 125 g/ha,[4]; [23],100%
same,pest or weed control at 31 g/ha,[5],10%
same,pest or weed control at 125 g/ha,[5],90%
same,pest or weed control at 31 g/ha,[6],30%
same,pest or weed control at 125 g/ha,[6],90%
same,pest or weed control at 250 g/ha,[7],100%
same,pest or weed control at 250 g/ha,[8],85%
same,plant injury at 250 g/ha,[9],45%
same,pest or weed control at 250 g/ha,[10],100%
same,pest or weed control at 31 g/ha,[11],100%
same,pest or weed control at 125 g/ha,[11],100%
same,pest or weed control at 31 g/ha,[12],80%
same,pest or weed control at 125 g/ha,[12],100%
same,pest or weed control at 31 g/ha,[13],100%
same,pest or weed control at 125 g/ha,[13],100%
same,pest or weed control at 31 g/ha,[14],100%
same,pest or weed control at 125 g/ha,[14],100%
same,"Corn plant response rating (crop injury, 0 = no effect, 100 = complete kill) at 31 g/ha",[15],40%
same,"Corn plant response rating (crop injury, 0 = no effect, 100 = complete kill) at 125 g/ha",[15],90%
same,pest or weed control at 31 g/ha,[16],90%
same,pest or weed control at 125 g/ha,[16],90%
same,pest or weed control at 31 g/ha,[17],40%
same,pest or weed control at 125 g/ha,[17],90%
same,pest or weed control at 31 g/ha,[18],50%
same,pest or weed control at 125 g/ha,[18],90%
same,pest or weed control at 31 g/ha,[19],40%
same,pest or weed control at 125 g/ha,[19],70%
same,plant injury at 31 g/ha,[20],20%
same,plant injury at 125 g/ha,[20],90%
same,pest or weed control at 31 g/ha,[21],10%
same,pest or weed control at 62 g/ha,[21],60%
same,pest or weed control at 125 g/ha,[21],90%
same,pest or weed control at 16 g/ha,[21],0%
same,pest or weed control at 31 g/ha,[22],100%
same,pest or weed control at 62 g/ha,[22],100%
same,pest or weed control at 125 g/ha,[22],100%
same,pest or weed control at 16 g/ha,[22],100%

# From patent US20170190671A1, “BIS(ARYL)CATECHOL DERIVATIVES AS HERBICIDES” (E I DU PONT DE NEMOURS AND COMPANY, priority 2014, published 2017)
